Literature values, collected in US20050163829A1, “Device and patch for controlled release of vanillin” (priority 2001, published 2005).
Each block holds one compound with its values, some of them ahead of it.

How the values were obtained:
[1] = system: glutamate receptors (KA)
[2] = system: nicotinic acetylcholine receptor (nACh)
[3] = system: GABA receptor
[4] = system: glutamate receptors (NMDA)

SMILES: COc1cc(C=O)ccc1O [Vanillin, 3 methoxy-4 hydroxybenzaldehyde]
effect on the glutamate receptor KA [1]: inhibitory effect
effect on the nicotinic acetylcholine receptor (nACh) [2]: inhibited
effect on the GABA receptor [3]: inhibited
effect on the glutamate receptor NMDA [4]: inhibitory effect

effect on the GABA receptor [3]: stimulate
SMILES: CC(C)=CCC/C(C)=C/CO [geraniol]

SMILES: CCCCOC(C)=O [butyl acetate]
effect on the GABA receptor [3]: stimulate
